Assay results from patent publication US10730863B2, “Bridged bicyclic compounds as farnesoid X receptor modulators” (BRISTOL-MYERS SQUIBB COMPANY, priority 2017, dated 2020).

How the values were obtained:
FXR [1] = target: T1, FXR (Homo sapiens (Human), UniProt Q96RI1); experiment: transient human FXR/Gal4-luciferase reporter assay; assay type: cell-based; conditions: Gal4-hFXR LBD fusion in HEK293 reporter cells; relative to 8 μM GW-4064
Method: The exemplified compounds of the present invention were tested in the transient human FXR/Gal4-luciferase reporter assay, and assay results were described in the EXAMPLES section hereinbefore.
A Gal4-hFXR fusion construct reporter system was used as the primary assay to characterize compound activity. A construct including 5 copies of the Gal4 promoter response element upstream of a firefly luciferase reporter cDNA was stably expressed in HEK293 cells. This reporter cell line was maintained in Dulbecco's Modified Eagle's medium (DMEM; Gibco) supplemented with 1% penicillin-streptomycin (P/S) solution, 500 μg/ml Zeocin and 10% charcoal/dextran-treated fetal bovine serum (cs-FBS) at 37° C. in a humidified 5% CO2 atmosphere. Another plasmid was constructed in which the human cytomegalovirus promoter in the pcDNA3.1 vector directs the expression of the cDNA encoding a fusion protein comprised of the DNA binding domain from the Gal4 transcription factor fused to the ligand binding domain from human FXR.
The day prior to transfection, the reporter cells in culture are detached from the plate with trypsin and plated into a T75 flask at a sufficient density to achieve approximately 90% confluence the next morning. The transfection reagents are prepared by separately diluting 25 μg of the pcDNA3.1-Gal4-FXR plasmid into 1.87 mL of Opti-MEM (Thermo-Fisher), and 40 μL of Lipofectamine 2000 (Thermo-Fisher) into 1.87 mL of Opti-MEM, and then adding the diluted DNA solution into the diluted Lipofectamine 2000 solution and incubating at room temperature for 15-20 minutes. The mixture is further diluted with 10 mL of a solution comprised of DMEM, 10% cs-FBS, and 1% P/S immediately prior to transferring to the cells. The maintenance culture media is aspirated from the cells and the final transfection mixture is added before the cells are incubated overnight at 37° C. in a humidified 5% CO2 atmosphere. This protocol can be scaled up, and the transiently transfected cells can be cryopreserved in an assay-ready format.
For compound testing, 100 nL of the compounds (serial dilutions in DMSO) are dispensed with an Echo acoustic dispenser (Labcyte) into the wells of a Corning/Costar clear bottom 384-well white plate. The transfected cells are harvested, counted, and diluted such that 10-25,000 cells in 25 μL are plated into each well of the 384-well compound assay plate. The compound-treated cells are incubated overnight at 37° C. in a humidified 5% CO2 atmosphere. The next morning 25 μL of Steady-Glo (Promega) are added to each well of the plate, the mixture is incubated for 15 min. with shaking, and luminescence is measured on an Envision (Perkin Elmer) plate reader. Background counts from cells treated with DMSO alone are subtracted from all raw counts, and the corrected values are converted to a percentage of the control response attained with 8 μM GW-4064.

FXR [2] = target: T1, FXR; experiment: FXR EC50 (FXR agonist activity reported with each example); assay type: cell-based

T1 sequence (Q96RI1 262-486): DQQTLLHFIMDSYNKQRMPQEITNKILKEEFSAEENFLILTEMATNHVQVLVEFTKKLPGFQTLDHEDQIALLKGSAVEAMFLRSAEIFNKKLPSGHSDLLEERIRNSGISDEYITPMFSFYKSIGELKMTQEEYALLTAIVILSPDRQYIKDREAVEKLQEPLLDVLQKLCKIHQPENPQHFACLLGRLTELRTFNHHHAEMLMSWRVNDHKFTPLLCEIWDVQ

Row | Compound | EC50 (FXR [1]) | EC50 (FXR [2])
1 | CCc1cc(OCC23CCC(OCc4c(-c5c(Cl)cncc5Cl)noc4C4CC4)(CC2)CC3)nn1CC(=O)O [Example 524] | 1.5 µM | –
2 | O=C(O)c1cccc(COCC23CCC(OCc4c(-c5c(Cl)cncc5Cl)noc4C4CC4)(CC2)CC3)c1 [Example 525] | 0.167 µM | –
3 | Cn1nc(C(=O)O)cc1OCC12CCC(OCc3c(-c4c(Cl)cncc4Cl)noc3C3CC3)(CC1)CC2 [Example 526] | 0.296 µM | –
4 | O=C(O)c1cc(C(F)(F)F)cc(COCC23CCC(OCc4c(-c5c(Cl)cncc5Cl)noc4C4CC4)(CC2)CC3)n1 [Example 527] | 0.086 µM | –
5 | O=C(O)c1cc(OCC23CCC(OCc4c(-c5c(Cl)cncc5Cl)noc4C4CC4)(CC2)CC3)nn1CC1CC1 [Example 528] | 0.016 µM | –
6 | CCc1nc(C(=O)O)cc2ccc(OCC34CCC(OCc5c(-c6c(Cl)cncc6Cl)noc5C5CC5)(CC3)CC4)cc12 [Example 529] | 0.009 µM | –
7 | CCn1nc(OCC23CCC(OCc4c(-c5c(Cl)cncc5Cl)noc4C4CC4)(CC2)CC3)c(C)c1C(=O)O [Example 530] | 0.219 µM | –
8 | Cc1c(OCC23CCC(OCc4c(-c5c(Cl)cncc5Cl)noc4C4CC4)(CC2)CC3)nn(C(C)C)c1C(=O)O [Example 531] | 0.138 µM | –
9 | Cc1c(OCC23CCC(OCc4c(-c5c(Cl)cncc5Cl)noc4C4CC4)(CC2)CC3)nn(CC2CC2)c1C(=O)O [Example 532] | 0.148 µM | –
10 | Cc1c(OCC23CCC(OCc4c(-c5c(Cl)cncc5Cl)noc4C4CC4)(CC2)CC3)nn(CC2COC2)c1C(=O)O [Example 533] | 1.91 µM | –
11 | Cc1c(OCC23CCC(OCc4c(-c5c(Cl)cncc5Cl)noc4C4CC4)(CC2)CC3)nn(C)c1C(=O)O [Example 534] | 0.248 µM | –
12 | O=C(O)c1c(F)c(OCC23CCC(OCc4c(-c5c(Cl)cncc5Cl)noc4C4CC4)(CC2)CC3)nn1CC1CC1 [Example 535] | 0.05 µM | –
13 | CC(F)(F)c1cc(OCC23CCC(OCc4c(-c5c(Cl)cncc5Cl)noc4C4CC4)(CC2)CC3)cnc1C(=O)O [Example 536] | 0.055 µM | –
14 | CCn1nc(C(=O)O)cc1OCC12CCC(OCc3c(-c4c(Cl)cncc4Cl)noc3C3CC3)(CC1)CC2 [Example 537] | 0.079 µM | –
15 | O=C(O)c1ccn2cc(OCC34CCC(OCc5c(-c6c(Cl)cncc6Cl)noc5C5CC5)(CC3)CC4)nc2c1 [Example 538] | 0.09 µM | –
16 | O=C(O)c1cc(OCC23CCC(OCc4c(-c5c(Cl)cncc5Cl)noc4C4CC4)(CC2)CC3)nn1C1CC1 [Example 539] | 0.025 µM | –
17 | CCn1nc(C(=O)O)c(F)c1OCC12CCC(OCc3c(-c4c(Cl)cncc4Cl)noc3C3CC3)(CC1)CC2 [Example 540] | 0.345 µM | –
18 | O=C(O)c1cc(OCC23CCC(OCc4c(-c5c(Cl)cncc5Cl)noc4C4CC4)(CC2)CC3)n(C2CC2)n1 [Example 541] | 0.059 µM | –
19 | O=C(O)c1cnc(C#CC23CCC(OCc4c(-c5c(Cl)cncc5Cl)noc4C4CC4)(CC2)CC3)cn1 [Example 542] | 4.88 µM | –
20 | O=C(O)c1cc(N2CCOCC2)c2nc(C34CCC(OCc5c(-c6c(Cl)cncc6Cl)noc5C5CC5)(CC3)CC4)ccc2c1 [Example 543] | 0.469 µM | –
21 | O=C(O)c1cc(OC2COC2)c2nc(C34CCC(OCc5c(-c6c(Cl)cncc6Cl)noc5C5CC5)(CC3)CC4)ccc2c1 [Example 544] | 0.118 µM | –
22 | O=C(O)c1cc(C(F)(F)F)cn2c(C#CC34CCC(OCc5c(-c6c(Cl)cncc6Cl)noc5C5CC5)(CC3)CC4)cnc12 [Example 545] | 0.005 µM | –
23 | CCc1cc(C(=O)O)c2ncc(C#CC34CCC(OCc5c(-c6c(Cl)cncc6Cl)noc5C5CC5)(CC3)CC4)n2c1 [Example 546] | 0.007 µM | –
24 | O=C(O)c1cc2ccc(Cl)cc2c(C#CC23CCC(OCc4c(-c5c(Cl)cncc5Cl)noc4C4CC4)(CC2)CC3)n1 [Example 547] | 0.251 µM | –

Row | Compound | EC50 (FXR [1]) | EC50 (FXR [2])
25 | O=C(O)c1cc2ccc(C#CC34CCC(OCc5c(-c6c(Cl)cncc6Cl)noc5C5CC5)(CC3)CC4)cc2c(N2CCOCC2)n1 [Example 548] | 0.013 µM | –
26 | COCCCOc1nc(C(=O)O)cc2cc(C#CC34CCC(OCc5c(-c6c(Cl)cncc6Cl)noc5C5CC5)(CC3)CC4)ccc12 [Example 549] | 0.126 µM | –
27 | O=C(O)c1cc2ccc(C#CC34CCC(OCc5c(-c6c(Cl)cncc6Cl)noc5C5CC5)(CC3)CC4)cc2c(Nc2ccccc2)n1 [Example 550] | 0.186 µM | –
28 | O=C(O)c1cc2ccc(C#CC34CCC(OCc5c(-c6c(Cl)cncc6Cl)noc5C5CC5)(CC3)CC4)cc2c(NC2CC2)n1 [Example 551] | 0.406 µM | –
29 | O=C(O)c1cc2ccc(C#CC34CCC(OCc5c(-c6c(Cl)cncc6Cl)noc5C5CC5)(CC3)CC4)cc2c(N2CC(O)C2)n1 [Example 552] | 0.1 µM | –
30 | O=C(O)c1cc2ccc(C#CC34CCC(OCc5c(-c6c(Cl)cncc6Cl)noc5C5CC5)(CC3)CC4)cc2c(N2CC(F)C2)n1 [Example 553] | 0.012 µM | –
31 | O=C(O)COc1ccc(C#CC23CCC(OCc4c(-c5c(Cl)cncc5Cl)noc4C4CC4)(CC2)CC3)c(F)c1 [Example 554] | 3.16 µM | –
32 | O=C(O)c1cc2cc(C#CC34CCC(OCc5c(-c6c(Cl)cncc6Cl)noc5C5CC5)(CC3)CC4)ccc2c(N2CCOCC2)n1 [Example 555] | 0.087 µM | –
33 | COCCCOc1cc(C(=O)O)cc2ccc(C34CCC(OCc5c(-c6c(Cl)cncc6Cl)noc5C5CC5)(CC3)CC4)nc12 [Example 556] | 0.03 µM | –
34 | O=C(O)c1cc2ccc(C#CC34CCC(OCc5c(-c6c(Cl)cncc6Cl)noc5C5CC5)(CC3)CC4)cc2c(N2CCC(O)C2)n1 (centres unmarked) [Example 557] | 0.188 µM | –
35 | O=C(O)c1cc2ccc(C#CC34CCC(OCc5c(-c6c(Cl)cncc6Cl)noc5C5CC5)(CC3)CC4)cc2c(N2CCC(O)CC2)n1 [Example 558] | 0.02 µM | –
36 | O=C(O)c1cc2ccc(C#CC34CCC(OCc5c(-c6c(Cl)cncc6Cl)noc5C5CC5)(CC3)CC4)cc2c(N2CCC2)n1 [Example 559] | 0.02 µM | –
37 | O=C(O)c1cc(OC2CCOC2)c2nc(C34CCC(OCc5c(-c6c(Cl)cncc6Cl)noc5C5CC5)(CC3)CC4)ccc2c1 (centres unmarked) [Example 560] | 0.286 µM | –
38 | O=C(O)COc1cc(C#CC23CCC(OCc4c(-c5c(Cl)cncc5Cl)noc4C4CC4)(CC2)CC3)ccn1 [Example 561] | 0.779 µM | –
39 | O=C(O)c1cnc(N2CCC2)c(C#CC23CCC(OCc4c(-c5c(Cl)cncc5Cl)noc4C4CC4)(CC2)CC3)c1 [Example 562] | 0.021 µM | –
40 | COc1ncc(C(=O)O)cc1C#CC12CCC(OCc3c(-c4c(Cl)cncc4Cl)noc3C3CC3)(CC1)CC2 [Example 563] | 0.016 µM | –
41 | O=C(O)CCc1ccc(C#CC23CCC(OCc4c(-c5c(Cl)cncc5Cl)noc4C4CC4)(CC2)CC3)cc1 [Example 564] | 0.175 µM | –
42 | O=C(O)Cc1ccc(C#CC23CCC(OCc4c(-c5c(Cl)cncc5Cl)noc4C4CC4)(CC2)CC3)c(C(F)(F)F)c1 [Example 565] | 0.115 µM | –
43 | O=C(O)COCc1ccc(C#CC23CCC(OCc4c(-c5c(Cl)cncc5Cl)noc4C4CC4)(CC2)CC3)cc1 [Example 566] | 0.194 µM | –
44 | COC(=O)c1ccc(NC(=S)C23CCC(COCc4c(-c5c(Cl)cccc5Cl)noc4C4CC4)(CC2)CC3)c(Cl)c1 [Intermediate 168A, methyl 3-chloro-4-(4-(((5-cyclopropyl-3-(2,6-dichlorophenyl)isoxazol-4-yl)methoxy)methyl)bicyclo[2.2.2]octane-1-carbothioamido)benzoate] | – | 4.38 µM
45 | COC(=O)c1ccc(NC(=O)C23CCC(COCc4c(-c5c(Cl)cccc5Cl)noc4C4CC4)(CC2)CC3)c(Cl)c1 [Intermediate 170A, methyl 3-chloro-4-(4-(((5-cyclopropyl-3-(2,6-dichlorophenyl)isoxazol-4-yl)methoxy)methyl)bicyclo[2.2.2]octane-1-carboxamido)benzoate] | – | 2.4 µM
46 | COC(=O)c1ccc(C23CCC(CNc4c(-c5c(Cl)cccc5Cl)noc4C4CC4)(CC2)CO3)cc1 [Intermediate 203A, methyl 4-(4-(((5-cyclopropyl-3-(2,6-dichlorophenyl)isoxazol-4-yl)amino)methyl)-2-oxabicyclo[2.2.2]octan-1-yl)benzoate] | – | 2.8 µM
47 | COC(=O)c1ccc(-c2noc(C34CCC(C=Cc5c(-c6c(Cl)cccc6Cl)noc5C5CC5)(CC3)C4)n2)cc1 [Intermediate 226C, methyl 4-(5-(4-(2-(5-cyclopropyl-3-(2,6-dichlorophenyl)isoxazol-4-yl)vinyl)bicyclo[2.2.1]heptan-1-yl)-1,2,4-oxadiazol-3-yl)benzoate] | – | 2.5 µM
